Experiments:
[1] = system: LPS-induced TNF-α release in peripheral blood mononuclear cells (PBMCs); test: In vitro determination of PDE4 inhibitory activity in the peripheral blood mononuclear cells (PBMCs) assay; assay type: cell-based; conditions: PBMC; human PBMCs, LPS (3 ng/ml), 18 hours, TNF-α by ELISA
Procedure: The assay, which is based on the known inhibitory activity exerted by PDE4 inhibitors on the lipopolysaccharides (LPS)-induced tumour necrosis factor-alpha (TNF-α release in peripheral blood mononuclear cells (PBMCs), was performed according to the method described by A. Hatzelmann, et al., J. Pharmacol. Exp. Ther., 2001; 297:267-279 and by R. Draheim, et al., J. Pharmacol. Exp. Ther., 2004; 308:555-563.
Cryopreserved human PBMCs, (100 μl/well) were incubated in 96-well plates (10^5 cells/well), for 30 minutes, in the presence or absence (50 microl) of the test compounds whose concentrations ranged from 10^−12 M to 10^−6 M. Subsequently, LPS (3 ng/ml) was added.
After 18 hours incubation at 37° C. in a humidified incubator under an atmosphere of 95% air and 5% CO2, culture medium was collected and TNF-α measured by ELISA. The results are expressed as mean±95% confidence limits of the molar concentration of the test compound producing 50% inhibition of LPS-induced TNF-α release (IC50).
The effects of the tested compounds were calculated as percent inhibition of TNF-α release, assuming LPS-induced TNF-α production in the absence of inhibitor compound as 100% and basal TNF-α production of PBMCs in the absence of LPS as 0%.

PDE4 enzyme = test: In vitro determination of PDE4 inhibitory activity in the cell free assay; assay type: biochemical, human; conditions: U937 cell supernatant, 1.6 μM cAMP, 30° C. for 30 minutes, cAMP disappearance
Procedure: The U937 human monocytic cell line was used as source of PDE4 enzyme. Cells were cultured, harvested and supernatant fraction prepared essentially as described in T. J. Torphy, et al., J. Pharmacol. Exp. Ther., 1992; 263:1195-1205.
PDE4 activity was determined in cells supernatants by assaying cAMP disappearance from the incubation mixtures. 50 μl of cell supernatant were incubated at 30° C. for 30 minutes in a final volume of 200 μl in the presence of 1.6 μM cAMP with or without the test compound (50 μl).
The concentration of the test compounds ranged between 10^−12 M and 10^−6 M.
Reactions were stopped by heat inactivation (2.5 minutes at 100° C.), and residual cAMP was measured using an electrochemiluminescence (ECL)-based immunoassay.
The results are expressed as mean±95% confidence limits of the molar concentration of the test compound producing 50% inhibition of cAMP disappearance (IC50).
Percentage of inhibition of PDE4 activity was calculated, assuming cAMP disappearance in the absence of inhibitors as 100% and cAMP disappearance in heat inactivated samples as 0%.

Compound	IC50 [1] [nM]	IC50 (PDE4 enzyme) [nM]
CCOc1cc(N(Cc2ccc(OC)cc2)Cc2c(Cl)cncc2Cl)ccc1OC [Compound C14, (3,5-Dichloro-pyridin-4-ylmethyl)-(3-ethoxy-4-methoxy-phenyl)-(4-methoxy-benzyl)-amine]	117	27
COc1ccc(N(Cc2ccc(S(C)(=O)=O)cc2)Cc2c(Cl)cncc2Cl)cc1OC [Compound C4, (3,5-Dichloro-pyridin-4-ylmethyl)-(3,4-dimethoxy-phenyl)-(4-methanesulfonyl-benzyl)-amine]	198	60
COc1ccc(N(Cc2ccc(F)cc2)Cc2c(Cl)cncc2Cl)cc1OC [Compound C1, (3,5-Dichloro-pyridin-4-ylmethyl)-(3,4-dimethoxy-phenyl)-(4-fluoro-benzyl)-amine]	661	81
COc1ccc(N(Cc2ccco2)Cc2c(Cl)cncc2Cl)cc1OC [Compound C9, (3,5-Dichloro-pyridin-4-ylmethyl)-(3,4-dimethoxy-phenyl)-furan-2-ylmethyl-amine]	47.8	
COc1cccc(CN(Cc2c(Cl)cncc2Cl)c2ccc(OC)c(OC)c2)c1 [Compound C3, (3,5-Dichloro-pyridin-4-ylmethyl)-(3,4-dimethoxy-phenyl)-(3-methoxy-benzyl)-amine]	184	140
COc1ccc(CN(Cc2c(Cl)cncc2Cl)c2ccc(OC)c(OC)c2)cc1 [Compound C13, (3,5-Dichloro-pyridin-4-ylmethyl)-(3,4-dimethoxy-phenyl)-(4-methoxy-benzyl)-amine]	9.85	97.1
COc1ccc(N(Cc2ccc(S(N)(=O)=O)cc2)Cc2c(Cl)cncc2Cl)cc1OC [Compound C10, 4-{[(3,5-Dichloro-pyridin-4-ylmethyl)-(3,4-dimethoxy-phenyl)-amino]-methyl}-benzenesulfonamide]	38	38
